Measurements reported in patent publication US8802597B2, “Herbicidal pyrimidines” (E I du Pont de Nemours and Company, priority 2003, dated 2014).
Like-named read-outs stand apart in the source and are kept apart here.

Legend:
Type in all cases: in vivo
[1] = tested on: duck salad (Heteranthera limosa); experiment: Test B flooded paddy test; conditions: Heteranthera limosa, Flood, 1000 g ai/ha; scale 0 to 100; read-out: Plant response rating, Ducksalad
How it was run: (§1)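 Visual injury scoring (0 = no effect, 100 = complete control) versus controls made 13 to 15 days after treatment in the greenhouse. Test species were grown in flooded paddy to the 2-leaf stage: rice, barnyardgrass, umbrella sedge, duck salad.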

[2] = tested on: barnyardgrass (Echinochloa crus-galli); experiment: Test B flooded paddy test; conditions: Echinochloa crus-galli, Flood, 1000 g ai/ha; scale 0 (no effect) to 100 (complete control); read-out: Plant response rating, Barnyardgrass
How it was run: as §1

[3] = tested on: rice (Oryza sativa); experiment: Test B flooded paddy test; conditions: Oryza sativa, Flood, 1000 g ai/ha; scale 0 to 100; read-out: Plant response rating, Rice
How it was run: as §1

[4] = tested on: umbrella sedge (Cyperus difformis); experiment: Test B flooded paddy test; conditions: Cyperus difformis, Flood, 1000 g ai/ha; scale 0 to 100; read-out: Plant response rating, Sedge, Umbrella
How it was run: as §1

[5] = tested on: lambsquarters (Chenopodium album); experiment: Test B pre/postemergence; conditions: Chenopodium album; for pest or weed control at 125 g/ha: 125 g ai/ha; for pest or weed control at 500 g/ha: 500 g ai/ha
How it was run: (§2)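 Scores reflect visual comparison with untreated controls, where 0 means no effect and 100 complete control. Plants stayed 13 to 15 days in the greenhouse after pre- or postemergence treatment with compounds carried in a non-phytotoxic solvent and surfactant.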

[6] = tested on: barnyardgrass (Echinochloa crus-galli); experiment: Test B pre/postemergence; conditions: Echinochloa crus-galli; for pest or weed control at 125 g/ha: 125 g ai/ha; for pest or weed control at 500 g/ha: 500 g ai/ha
How it was run: as §2

[7] = tested on: wheat (Triticum aestivum); experiment: Test B pre/postemergence; conditions: Triticum aestivum; for plant injury at 125 g/ha: 125 g ai/ha; for plant injury at 500 g/ha: 500 g ai/ha
How it was run: as §2

[8] = tested on: crabgrass (Digitaria sanguinalis); experiment: Test B pre/postemergence; conditions: Digitaria sanguinalis; for pest or weed control at 125 g/ha: 125 g ai/ha; for pest or weed control at 500 g/ha: 500 g ai/ha
How it was run: as §2

[9] = tested on: pigweed (Amaranthus retroflexus); experiment: Test B pre/postemergence; conditions: Amaranthus retroflexus; for pest or weed control at 125 g/ha: 125 g ai/ha; for pest or weed control at 500 g/ha: 500 g ai/ha
How it was run: as §2

[10] = tested on: velvetleaf (Abutilon theophrasti); experiment: Test B pre/postemergence; conditions: Abutilon theophrasti; for pest or weed control at 125 g/ha: 125 g ai/ha; for pest or weed control at 500 g/ha: 500 g ai/ha
How it was run: as §2

[11] = tested on: morningglory (Ipomoea coccinea); experiment: Test B pre/postemergence; conditions: Ipomoea; for pest or weed control at 125 g/ha: 125 g ai/ha; for pest or weed control at 500 g/ha: 500 g ai/ha
How it was run: as §2

[12] = tested on: giant foxtail (Setaria faberii); experiment: Test B pre/postemergence; conditions: Setaria faberi; for pest or weed control at 125 g/ha: 125 g ai/ha; for pest or weed control at 500 g/ha: 500 g ai/ha
How it was run: as §2

[13] = tested on: Surinam grass (Brachiaria decumbens); experiment: Test B pre/postemergence; conditions: Urochloa decumbens; for pest or weed control at 125 g/ha: 125 g ai/ha; for pest or weed control at 500 g/ha: 500 g ai/ha
How it was run: as §2

[14] = tested on: corn (Zea mays); experiment: Test B pre/postemergence; conditions: Zea mays
How it was run: as §2

[15] = tested on: cocklebur (Xanthium strumarium); experiment: Test B pre/postemergence; conditions: Xanthium strumarium; for pest or weed control at 125 g/ha: 125 g ai/ha; for pest or weed control at 500 g/ha: 500 g ai/ha
How it was run: as §2

[16] = tested on: blackgrass (Alopecurus myosuroides); experiment: Test B postemergence; conditions: Alopecurus myosuroides, post-emergence
How it was run: as §2

[17] = tested on: wild oat (Avena fatua); experiment: Test B postemergence; conditions: Avena fatua, post-emergence
How it was run: as §2

COC(=O)c1nc(C2CC2)nc(N)c1I [Compound 7]
pest or weed control at 1000 g/ha [1]: 0% | pest or weed control at 1000 g/ha [2]: 20% | plant injury at 1000 g/ha [3]: 0% | pest or weed control at 1000 g/ha [4]: 0% | pest or weed control at 125 g/ha ([5]; post-emergence, Postemergence, scale 0 to 100 (0 no effect, 100 complete control), read-out: Lambsquarters plant response rating): 80% | pest or weed control at 500 g/ha ([5]; post-emergence, Postemergence, scale 0 to 100, read-out: Plant response rating, Lambsquarters): 100% | pest or weed control at 125 g/ha ([5]; pre-emergence, Preemergence, scale 0 to 100 (0 no effect, 100 complete control), read-out: Plant response rating, Lambsquarters): 80% | pest or weed control at 500 g/ha ([5]; pre-emergence, Preemergence, scale 0 to 100 (0 no effect, 100 complete control), read-out: Lambsquarters plant response rating): 90% | pest or weed control at 125 g/ha ([6]; post-emergence, Postemergence, scale 0 to 100 (0 no effect, 100 complete control), read-out: Barnyardgrass plant response rating): 0% | pest or weed control at 500 g/ha ([6]; post-emergence, Postemergence, scale 0 to 100, read-out: Plant response rating, Barnyardgrass): 30% | pest or weed control at 125 g/ha ([6]; pre-emergence, Preemergence, scale 0 to 100 (0 no effect, 100 complete control), read-out: Plant response rating, Barnyardgrass): 0% | pest or weed control at 500 g/ha ([6]; pre-emergence, Preemergence, scale 0 to 100 (0 no effect, 100 complete control), read-out: Barnyardgrass plant response rating): 30% | plant injury at 125 g/ha ([7]; post-emergence, Postemergence, scale 0 to 100 (0 no effect, 100 complete control), read-out: Wheat plant response rating): 50% | plant injury at 500 g/ha ([7]; post-emergence, Postemergence, scale 0 to 100, read-out: Plant response rating, Wheat): 80% | plant injury at 125 g/ha ([7]; pre-emergence, Preemergence, scale 0 to 100 (0 no effect, 100 complete control), read-out: Plant response rating, Wheat): 0% | plant injury at 500 g/ha ([7]; pre-emergence, Preemergence, scale 0 to 100 (0 no effect, 100 complete control), read-out: Wheat plant response rating): 30% | pest or weed control at 125 g/ha ([8]; post-emergence, Postemergence, scale 0 to 100 (0 no effect, 100 complete control), read-out: Crabgrass plant response rating): 10% | pest or weed control at 500 g/ha ([8]; post-emergence, Postemergence, scale 0 to 100, read-out: Plant response rating, Crabgrass): 30% | pest or weed control at 125 g/ha ([8]; pre-emergence, Preemergence, scale 0 to 100 (0 no effect, 100 complete control), read-out: Plant response rating, Crabgrass): 0% | pest or weed control at 500 g/ha ([8]; pre-emergence, Preemergence, scale 0 to 100 (0 no effect, 100 complete control), read-out: Crabgrass plant response rating): 30% | pest or weed control at 125 g/ha ([9]; post-emergence, Postemergence, scale 0 to 100 (0 no effect, 100 complete control), read-out: Pigweed plant response rating): 0% | pest or weed control at 500 g/ha ([9]; post-emergence, Postemergence, scale 0 to 100, read-out: Plant response rating, Pigweed): 90% | pest or weed control at 125 g/ha ([9]; pre-emergence, Preemergence, scale 0 to 100 (0 no effect, 100 complete control), read-out: Plant response rating, Pigweed): 90% | pest or weed control at 500 g/ha ([9]; pre-emergence, Preemergence, scale 0 to 100 (0 no effect, 100 complete control), read-out: Pigweed plant response rating): 90% | pest or weed control at 125 g/ha ([10]; post-emergence, Postemergence, scale 0 to 100 (0 no effect, 100 complete control), read-out: Velvetleaf plant response rating): 50% | pest or weed control at 500 g/ha ([10]; post-emergence, Postemergence, scale 0 to 100, read-out: Plant response rating, Velvetleaf): 90% | pest or weed control at 125 g/ha ([10]; pre-emergence, Preemergence, scale 0 to 100 (0 no effect, 100 complete control), read-out: Plant response rating, Velvetleaf): 50% | pest or weed control at 500 g/ha ([10]; pre-emergence, Preemergence, scale 0 to 100 (0 no effect, 100 complete control), read-out: Velvetleaf plant response rating): 80% | pest or weed control at 125 g/ha ([11]; post-emergence, Postemergence, scale 0 to 100 (0 no effect, 100 complete control), read-out: Morningglory plant response rating): 80% | pest or weed control at 500 g/ha ([11]; post-emergence, Postemergence, scale 0 to 100, read-out: Plant response rating, Morningglory): 90% | pest or weed control at 125 g/ha ([11]; pre-emergence, Preemergence, scale 0 to 100 (0 no effect, 100 complete control), read-out: Plant response rating, Morningglory): 70% | pest or weed control at 500 g/ha ([11]; pre-emergence, Preemergence, scale 0 to 100 (0 no effect, 100 complete control), read-out: Morningglory plant response rating): 80% | pest or weed control at 125 g/ha ([12]; post-emergence, Postemergence, scale 0 to 100 (0 no effect, 100 complete control), read-out: Foxtail, Giant plant response rating): 20% | pest or weed control at 500 g/ha ([12]; post-emergence, Postemergence, scale 0 to 100, read-out: Plant response rating, Foxtail, Giant): 40% | pest or weed control at 125 g/ha ([12]; pre-emergence, Preemergence, scale 0 to 100 (0 no effect, 100 complete control), read-out: Plant response rating, Foxtail, Giant): 0% | pest or weed control at 500 g/ha ([12]; pre-emergence, Preemergence, scale 0 to 100 (0 no effect, 100 complete control), read-out: Foxtail, Giant plant response rating): 0% | pest or weed control at 125 g/ha ([13]; post-emergence, Postemergence, scale 0 to 100 (0 no effect, 100 complete control), read-out: Surinam Grass plant response rating): 0% | pest or weed control at 500 g/ha ([13]; post-emergence, Postemergence, scale 0 to 100, read-out: Plant response rating, Surinam Grass): 20% | pest or weed control at 125 g/ha ([13]; pre-emergence, Preemergence, scale 0 to 100 (0 no effect, 100 complete control), read-out: Plant response rating, Surinam Grass): 0% | pest or weed control at 500 g/ha ([13]; pre-emergence, Preemergence, scale 0 to 100 (0 no effect, 100 complete control), read-out: Surinam Grass plant response rating): 0% | plant injury at 125 g/ha ([14]; post-emergence, Postemergence, 125 g ai/ha, scale 0 to 100 (0 no effect, 100 complete control), read-out: Corn plant response rating): 0% | Corn plant response rating (crop injury, 0 = no effect, 100 = complete kill) at 500 g/ha ([14]; post-emergence, Postemergence, 500 g ai/ha, scale 0 to 100): 30% | Corn plant response rating (crop injury, 0 = no effect, 100 = complete kill) at 125 g/ha ([14]; pre-emergence, Preemergence, 125 g ai/ha, scale 0 to 100 (0 no effect, 100 complete control)): 0% | plant injury at 500 g/ha ([14]; pre-emergence, Preemergence, 500 g ai/ha, scale 0 to 100 (0 no effect, 100 complete control), read-out: Corn plant response rating): 0% | pest or weed control at 125 g/ha ([15]; post-emergence, Postemergence, scale 0 to 100 (0 no effect, 100 complete control), read-out: Cocklebur plant response rating): 90% | pest or weed control at 500 g/ha ([15]; post-emergence, Postemergence, scale 0 to 100, read-out: Plant response rating, Cocklebur): 100% | pest or weed control at 125 g/ha ([15]; pre-emergence, Preemergence, scale 0 to 100 (0 no effect, 100 complete control), read-out: Plant response rating, Cocklebur): 70% | pest or weed control at 500 g/ha ([15]; pre-emergence, Preemergence, scale 0 to 100 (0 no effect, 100 complete control), read-out: Cocklebur plant response rating): 80% | pest or weed control at 125 g/ha ([16]; 125 g ai/ha, scale 0 to 100 (0 no effect, 100 complete control), read-out: Blackgrass plant response rating): 60% | pest or weed control at 500 g/ha ([16]; 500 g ai/ha, scale 0 to 100, read-out: Plant response rating, Blackgrass): 80% | pest or weed control at 125 g/ha ([17]; 125 g ai/ha, scale 0 to 100 (0 no effect, 100 complete control), read-out: Oat, Wild plant response rating): 40% | pest or weed control at 500 g/ha ([17]; 500 g ai/ha, scale 0 to 100, read-out: Plant response rating, Oat, Wild): 70%
